Consider one molecule from US12338266B2 (GENETIC S.P.A., priority 2019, dated 2025).

Format in all cases: in vivo, Balb/c mice
Experiment [1] concerns mice with OVA-induced allergic asthma. The experiment in a line: Lung hyperreactivity / Penh by whole body plethysmography (Protocol-2). As for the experimental part: (§1) Male Balb/c SPF mice (26*2 g, 6 week-old) were purchased from the animal house facilities at the Faculty of Medicine (University of Sāo Paulo, Brazil). They were group-housed in a temperature-controlled room at 22° C. with a 12/12-hour light/dark cycle and allowed free access to food and water. The study is in agreement with the Ethical Principles for Animal Research established by the Brazilian College for Animal Experimentation (COBEA). According to the internal laboratory rules, euthanasia will be performed if severe distress related to the test agents developed during the experiment. Mice were sensitized with two subcutaneous injections of 0.2 ml of OVA/Al(OH)3, with an interval of 7 days (Sham animals received the Al(OH)3 suspension in PBS with no OVA). Chicken egg-white ovalbumin (OVA; grade V, cat. A5503, Sigma Chemical Co., St. Louis, Mo.) was dissolved in sterile phosphate buffered saline (PBS) solution (50 μg/ml) and Al(OH)3 was added (at 8 mg/ml). This mix was used to induce the allergic sensitization of the animals by subcutaneous injection. OVA was dissolved at 1% in sterile PBS solution and this solution was nebulized (as the immunological challenges). Seven days after the second sensitization (i.e., 3rd week), the animals were nebulized twice a week with the 1% OVA solution (Sham and untreated OVA groups were nebulized with PBS) during 20 minutes for the next 4 weeks. Thirty minutes before the challenges (OVA nebulization) and daily during the next 4 weeks, mice were intra-nasally treated (10 μl/animal as 5 μl/nostril) with the respective compounds/vehicle. […] Animals were killed at selected time points by overdose of enflurane and BAL and blood collected.
Airway responsiveness in conscious, spontaneously breathing animals was measured at the end of the 6th week (i.e., after 4 weeks OVA challenges+treatments), 24 h after the last OVA/PBS challenge via whole body plethysmography (Buxco Europe Ltd, Winchester, UK). Experiments were carried out in a quiet room by an investigator who was unaware of the nature of treatments. Aerosolized saline (50 μl/mouse during 60 s) and then the muscarinic agonist metacholine (MCh) at increasing concentrations (3.12, 6.25, 12.5 and 25.0 mg/ml in PBS) was nebulized through an inlet of the main chamber for 3 min each to induce bronchoconstriction and readings were taken and averaged for 6 min following each nebulization. After 20 min. the baseline values usually returned at the end of this period. Enhanced pause (Penh) was measured as an indicator of bronchoconstriction and consequent increase of airway resistance as: Penh=[(expiration time/relaxation time)−1][…].

For experiment [2] the test system is unchanged. Description: Salbutamol-induced relaxation of carbachol pre-contracted bronchi of OVA-sensitized mice (Protocol-1). As for the experimental part:
Balb/c mice (8-9 weeks old, Charles River, Calco, Italy) were housed in the animal care facility at the Department of Pharmacy of the University of Naples. […] All animals were allowed to acclimate for four days prior to experiments and were subjected to 12 h light-12 h dark schedule. Each mouse was assigned an identity number and randomtzed to different groups so that all experiments were carried out in a blinded manner. The experimental procedures were approved by the Italian Ministry according to International and National law and policies (EU Directive 2010/63/EU and Italian DL 26/2014 for animal experiments, ARRIVE guidelines and the Basel declaration including the 3R concept). Animal studies are reported in compliance with the ARRIVE guidelines. Balb/c mice is the most widely mouse strain used to study asthma-like features in vivo and to investigate the undedying molecular and cellular mechanisms of allergen sensitization. Mice were treated subcutaneously (s.c.) with 0.4 mL (100 μg) of ovalbumin (OVA) complexed with alum (13 mg mL^−1) (OVA group) at day 0 and 7. Chicken egg-white ovalbumin (OVA: grade V. cat. A5503, Sigma Chemical Co., St. Louis, MO) was dissolved in sterile phosphate buffered saline (PBS) solution (250 μg/1 ml) and Al(OH)3 was added (at 13 mg/ml). This mix was used to induce the allergic sensitization of the animals by subcutaneous injection. OVA was dissolved at 3% in sterile PBS solution and this solution was nebulized (as the immunological challenges). At day 21 mice were exposed to OVA challenge for three days and then sacrificed. […] A group of animals was treated s.c. with saline (vehicle group). […] Animals were killed at selected time points by overdose of enflurane and bronchi and blood collected. Main bronchi were rapidly dissected and cleaned from fat and connective tissue. Rings of 1-2 mm length were cut and mounted in 2.5 mL isolated organ baths containing Krebs solution, at 37° C., oxygenated (95% O2 and 5% CO2), and connected to an isometric force transducer (type 7000. Ugo Basile. Cornerio, Italy) associated to a Powerlab 800 (AD Instruments). Rings were initially stretched until a resting tension of 0.5 g and allowed to equilibrate for at least 30 min. In each experiment bronchial rings were previously challenged with acetylcholine (10^−6 M) until a reproducible response curve was obtained. Subsequently, after tissue washing, a cumulative concentration response curve to carbachol (10^−9-3×10^−6 M) was performed. Results were expressed as dyne/mg tissue. In another set of experiments on bronchi pre-contracted with carbachol and salbutamol-induced relaxation was assessed.

For experiment [3] the test system is unchanged. Description: Total and differential leukocyte counts in BAL fluid (Protocol-2). As for the experimental part: as §1
After Penh evaluation, the mice were anesthetized with inhaled isofluorane (5% v/v in O2) and blood samples were collected from the descending abdominal aorta. The mice were then euthanized by exsanguination and bronchoalveolar lavage (BAL) was performed by exposing and cannulating the trachea with a polyethylene tube (1 mm outer diameter) connected to a syringe. The lungs were washed by flushing 300 μL of heparin-containing PBS solution (20 UI/mL). The retrieved BAL lavage aliquots were obtained and the same procedure was repeated four additional times. The samples were centrifuged (1000 g for 10 min) and the cell pellet was resuspended in 200 μL of PBS solution, Total cell counts were determined using a Neubauer chamber, and differential counting was carried out in cytospin (Fanem Mod 2400; Sāo Paulo, Brazil) preparations stained with May-Grünwald dye. Leukocytes were classified based on morphological criteria.

The mark [4] stands for this setting: 10 nmol/animal/day, comparable with ciclesonide alone at 100 nmol/animal/day.

Molecules are shown by their SMILES. “Also recorded” adds a separate entry of the source.

On to `CC(C)(O)c1ccccc1CCC(SCC1(CC(=O)OCC(=O)[C@@]23O[C@H](C4CCCCC4)O[C@@H]2C[C@H]2[C@@H]4CCC5=CC(=O)C=C[C@]5(C)[C@H]4[C@@H](O)C[C@@]23C)CC1)c1cccc(/C=C/c2ccc3ccc(Cl)cc3n2)c1` (some centres unmarked) [montelukast desisobutyryl-ciclesonide ester], for which the “respiratory function at the lowest dose tested” value in experiment [1] (setting [4]) is “significant effects”. Besides, the “airway responsiveness, Penh (basal, methacholine Emax and AUC)” value in experiment [1] (10, 30 and 100 nmol/day/animal intranasal, daily for 4 weeks, FIG. 8A-D) is on record as “Significant reduction of this response; also recorded: significantly reduced”. In experiment [2] (2 mg/Kg i.p.), the “salbutamol-induced relaxation compared to vehicle” value is recorded as “further increase in salbutamol-induced relaxation when compared to vehicle”. Further, the salbutamol-induced bronchial relaxation result in experiment [2] (0.5, 1 and 2 mg/Kg i.p., FIG. 5B) is reported as “rescued salbutamol ability to inducing bronchial relaxation at all doses tested”. For the same molecule, the “preserving salbutamol induced bronchial relaxation, compared to ciclesonide” value in experiment [2] (ester 2 mg/kg i.p. vs ciclesonide 1 mg/kg) is “significant major efficacy in preserving salbutamol induced bronchial relaxation”. The “preserving salbutamol relaxation, ester versus montelukast” value in experiment [2] (ester 2 mg/kg i.p. vs montelukast 1 mg/kg, FIG. 7B) is recorded as “significantly enhanced”. The “inhibition of eosinophil recruitment to the lungs at the lowest dose tested” value in experiment [3] (setting [4]) was “significant effects”. Besides, the “BAL eosinophils (OVA-induced increase)” value in experiment [3] (10, 30 and 100 nmol/animal/day intranasal, 4 weeks, FIG. 10) is on record as “did not reach statistical significance; also recorded: lower number of eosinophils”.
